Drawing on PubChem BioAssay (NCI), this text covers TGI and GI50 for nine molecules.

Molecules are shown by their SMILES. Where “and” joins values, the source holds several entries; their conditions need not be identical. Identical values can stand only once.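 Where inhibition never reached the appropriate level, the endpoint shown equals the highest concentration tested. Otherwise, values were interpolated linearly from a five-concentration, 48-hour dose response in 96-well plates. GI50 is the concentration that inhibits growth by half. The concentration for full growth arrest is given as TGI.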

Common to all, as to test: growth of human tumour cells (NCI), 48 h
For assay [1], the system named is U251 CNS.
The test system of assay [2] is M14 melanoma.
Assay [3] concerns CCRF-CEM leukemia.
Assay [4] relates to HOP-62 NSCLC.
The subject of assay [5] is SK-MEL-5 melanoma.
Assay [6] has as its system UACC-62 melanoma.
Assay [7] concerns SK-OV-3 ovarian.
The test system of assay [8] is SF-539 CNS.
For assay [9], the system named is RXF 393 renal.
In assay [10] the test system is SNB-19 CNS.

Turning to `O=c1[nH]c(=O)n(C2CC(O)C(CO)O2)cc1Br` (stereo not given), the TGI in [1], in [2], in [3], in assay [4], in assay [5] and in [6] was above 100 µM throughout. For the same molecule, the TGI in assay [7], in assay [8], in [9] and in assay [10] was above 100 µM each time.

With `NC(=O)/N=C/c1c(O)c2ccccc2oc1=O`, the TGI in assay [2], in [3], in assay [4], in [5], in assay [6] and in assay [8] was above 100 µM throughout. The TGI in assay [9] was 82.4 µM; in [10], above 100 µM.

As for `Cn1c(=O)c2[nH]c(SC/C(=N/O)c3ccc(Br)cc3)nc2n(C)c1=O`, the GI50 in [2] was 45.5 µM; in [3], 14.3 µM; in assay [4] it was 2.3 µM; in assay [9], 2.05 µM; in assay [10] it was 2.94 µM. Further, the TGI was above 100 µM in assay [2]; 57.1 µM in [3]; 5.09 µM in [4]; 3.76 µM in assay [9]; 8.35 µM in assay [10].

For the molecule `O=S(O)c1cc(Cl)c(O)c(Cl)c1`, the TGI in [1], in [2], in [3], in assay [4], in assay [6] and in assay [7] was above 100 µM throughout. Also, the TGI in assay [8], in [9] and in assay [10] was above 100 µM throughout.

For `O=C1C(=C([O-])c2ccccc2)C(=O)c2ccccc21.O=C1C(=C([O-])c2ccccc2)C(=O)c2ccccc21.[Ni+2]`, the GI50 in assay [1] is 34.5 µM; in assay [3], 54.7 µM; in [5] it was 18.2 µM; in assay [6], 36.8 µM; in [7], 23.1 µM; in assay [8] it was 59.2 µM. Also, the GI50 in assay [9] is 48.8 µM; in [10] it was 58.8 µM. Besides, the TGI in [1] is above 100 µM; in assay [3], above 100 µM; in assay [5], 54.9 µM; in [6] it was above 100 µM; in assay [7], 98.4 µM; in [8] it was above 100 µM. In addition, the TGI in assay [9] and in [10] was above 100 µM each time.

Take `COc1ccc2c3/c(=C\c4ccc(N(C)C)cc4)c4ccccc4n3[n+](C)c2c1`: the TGI is above 100 µM in assay [1]; 2.09 µM in [3]; 0.224 µM in [6]; 2.57 µM in assay [7]; 0.748 µM in assay [8]; 1.04 µM in assay [9]. The GI50 in assay [3] is 0.051 µM; in [6], below 0.0275 µM; in assay [7], 1.04 µM; in assay [8], 0.0409 µM; in [9], 0.0603 µM.

Regarding `CC1OC(O[C@@H]2C=C3CC[C@@H]4[C@H](CC[C@]5(C)[C@@H](c6ccc(=O)oc6)CC[C@]45O)[C@@]3(C)CC2)C(O)C(OC2OC(CO)C(O)C(O)C2O)C1O` (stereo not given in full), the GI50 in assay [1] was 0.000247 µM; in assay [2], 0.00096 µM; in assay [5], 0.00014 µM; in [10], 0.00038 µM. In addition, the TGI in assay [1] was 0.0176 µM and 0.0352 µM; in assay [2], 0.0148 µM; in assay [3], 0.133 µM; in assay [4], 0.00151 µM; in assay [5], 0.0175 µM; in assay [6], 0.0263 µM. Further, the TGI in [8] was 0.000699 µM; in assay [10], 0.113 µM and 0.0674 µM.

Consider `COC(=O)c1c(O)ccc2c1c1c(n2Cc2cccc(C)c2)C(=O)c2ccccc2C1`, for which the TGI is 66.1 µM in assay [1]; 47.1 µM in assay [2]; 36.8 µM in assay [3]; 51.6 µM in assay [4]; above 75 µM in assay [5]; above 75 µM in [6]. In addition, the TGI in assay [7] was above 75 µM; in [8], 61.4 µM; in [9], 30 µM; in assay [10], above 75 µM.

With `COc1cc(O)c(Cc2ccccc2O)c(O)c1C(=O)CCc1ccccc1`, the TGI turned out to be 14.5 µM in assay [1]; 22.5 µM in assay [3]; 9.89 µM in [4]; 9.36 µM in assay [5]; 19.1 µM in [6]; 18.2 µM in [7]. For the same molecule, the TGI in [8] worked out at 15.7 µM; in [9] it was 18.9 µM; in [10] it was 26.4 µM.
